Laboratory results reported in PMC7279038, “Antioxidant and Neuroprotective Effects Induced by Cannabidiol and Cannabigerol in Rat CTX-TNA2 Astrocytes and Isolated Cortexes” (International Journal of Molecular Sciences, 2020).

Tests used:
cytochrome C (Cyt C) = experiment: Western blotting analysis of cytochrome C; format: cell-based, rat; details: CTX-TNA2 challenged with H2O2, 24 h; 1000 nM CBD, 1 nM CBG
Experimental: (§1) […] The stock solutions were diluted in cell medium to the point that the concentration of DMSO in the samples was less than 0.0003%. Therefore, the addition of DMSO to the control samples was not necessary.
(§2) The western blowing analysis of Bax and Cyt C was carried out as previously reported. Specifically, CTX-TNA2 lysates (20 µg) were boiled fof 5 min in sample buffer, made of tris-HCl pH 6.8, glycerol, 2-mercaptoethanol, SDS and bromophenol blue. They were then electrophoresed and transferred to nitrocellulose membranes. […] Immunoreactive bands were identified using the ECL detection system (Euroclone, Pero, Milano, Italy) and analyzed by densitometry. Densitometric values were quantified by the CHEMIDOC XRS system and expressed as Integrated Optical Intensity using the QuantiOne 1-D analysis software (Bio-rad Laboratories, Richmond, CA, USA). […] Results are expressed as the mean ± SD.

[1] = tested on: CTX-TNA2 rat astrocyte cell line; experiment: MTT assay; format: cell-based; details: for cell proliferation (MTT): basal conditions, 48 h, cannabidiol 1000 nM, cannabigerol 100 and 1000 nM; for protection from H2O2 cytotoxicity (MTT): cells challenged with 300 µM H2O2, CBD 1000 nM, CBG 1 nM
Experimental: The CTX-TNA2 rat astrocytes were purchased from the European Collection of Cell Cultures (ECACC), Sigma-Aldrich, Milan, Italy, and cultured as already indicated. Cells were grown in Dulbecco’s Modified Eagle Medium supplemented with 10% of FBS and penicillin–streptomycin (100 µgmL^−1) (all from EuroClone SpA Life-Sciences-Division, Milan, Italy) and maintained in a humified atmosphere of 5% CO2 at 37 °C. Cells were subcultivated at a ratio of 1.2 to 1.8 and the medium was changed every 3 days. CTX-TNA2 astrocytes were plated in 25 or 75 cm^2 flasks, according to experimental needing and cells between the eight and the 15 passage were used.
When indicated, the cells were treated with H2O2 300 µM for three hours and different concentrations of CBD (1–1000 nM) and CBG (1–1000 nM). The stock solutions were diluted in cell medium to the point that the concentration of DMSO in the samples was less than 0.0003%. Therefore, the addition of DMSO to the control samples was not necessary.
The 3 [4–dimethylthiazol-2yl]-2,5-diphenyl tetrazolium bromide (MTT) growth assay (Sigma-Aldrich S.r.l.) was used to assess cell proliferation as previously described. Briefly, The CTX-TNA2 cells were seeded into 96-well plate at 8 × 10^3 cells/well and treated as described above. After 24 and 48 h, a medium containing 0.5 mg/mL MTT was added to the cells, and the cells were incubated at 37 °C for 3 h. Following a further incubation of 30 min in DMSO, the absorbance at 570 nm was measured using a Multiscan GO microplate spectrophotometer (Thermo Fisher Scientific, Waltham, MA, USA).

Bax = experiment: Western blotting analysis of Bax; format: cell-based, rat; details: CTX-TNA2 challenged with H2O2, 24 h; 1000 nM CBD, 1 nM CBG
Experimental: as §1, §2

[2] = tested on: isolated rat cortexes, kynurenic acid (KA); experiment: K+ 60 mM neurotoxicity paradigm, kynurenic acid level; details: for effect on K+ 60 mM-induced reduction in kynurenic acid (KA) level: CBD 1000 nM, CBG 1 nM
Experimental: Sprague–Dawley rats (200–250 g) were sacrificed by CO2 inhalation (Italian Health Ministry authorization N. F4738.N.XTQ, delivered on 11th November 2018) and isolated prefrontal cortex specimens were immediately explanted and incubated in thermostatic shaking bath at 37 °C for 1 h (incubation period), in Krebs–Ringer buffer at the following K^+ concentrations:
Cortexes were stimulated with CBD (1000 nM) and […]. Afterwards, specimens were homogenized in perchloric acid solution (0.05 M) for the extraction and quantification of nitrites, via the aforementioned colorimetric Griess assay, and serotonin (5-HT), 5-hydroxyindoleacetic (5HIIA),3-hydroxykinurenine (3-HK) and kinurenic acid (KA) (ng/mg wet tissue) via high performance liquid chromatography analysis. Additionally, an untargeted proteomic analysis was carried out on the cortex homogenate. The analytical protocols for 5-HT, 5HIIA, 3-HK, KA and protein level determinations are described below. The analyses were conducted in triplicate and in independent facilities with blind modality.
The KA quantitative determination was performed by using a liquid chromatograph (MOD. 1525, Waters Corporation, Milford MA, USA) equipped with a fluorimetric detector (MOD. 2475, Waters Corporation), a C18 reversed-phase column (AcclaimTM 120, 3 µm, 2.1 × 100 mm, Dionex Corporation, Sunnyvale, CA, USA), and an online degasser (Biotech 4-CH degasi compact, LabService, Anzola Emilia, Italy). The separation was conducted in isocratic conditions and the mobile phase consisted of 250 mM zinc acetate, 50 mM sodium acetate, and 3% acetonitrile (pH adjusted to 6.2 with glacial acetic acid), using a flow rate of 1.0 mL/min. In the eluate, the KA was identified and measured fluorimetrically (excitation: 344 nm; emission: 398 nm).

SMILES	Cyt C expression (cytochrome C (Cyt C))	cell proliferation (MTT) [1]	protection from H2O2 cytotoxicity (MTT) [1]	Bax expression (Bax)	effect on K+ 60 mM-induced reduction in kynurenic acid (KA) level [2]	KA level ([2]; basal conditions only)
C=C(C)[C@@H]1CCC(C)=C[C@H]1c1c(O)cc(CCCCC)cc1O [CBD, Cannabidiol]	decrease the Cyt C levels in comparison to H2O2 sample	increase in cell proliferation	effective in protecting the cells from oxidative damage	keep Bax expression at values comparable to the control sample	successful in blunting	–
CCCCCc1cc(O)c(C/C=C(\C)CCC=C(C)C)c(O)c1 [CBG, cannabigerol]	effect on Bax only	increase in cell proliferation	effective at the lowest concentration (1 nM)	expression does not differ from the control sample	completely ineffective	increase KA levels
